Experimental data as given in US10674727B2, “Substituted oxadiazoles for combating phytopathogenic fungi” (priority 2015, dated 2020).

Test system: Phakopsora pachyrhizi
Test: Protective control of soy bean rust on soy beans (glass house trial)
Assay type: in vivo
Details: 16 ppm active compound, sprayed 2 days before inoculation, soy bean seedlings; untreated plants 90%
Protocol: The spray solutions were prepared in several steps: The stock solution were prepared: a mixture of acetone and/or dimethylsulfoxide and the wetting agent/emulsifier Wettol, which is based on ethoxylated alkylphenoles, in a relation (volume) solvent-emulsifier of 99 to 1 was added to 25 mg of the compound to give a total of 5 ml. Water was then added to total volume of 100 ml. This stock solution was diluted with the described solvent-emulsifier-water mixture to the given concentration.
II.2) Protective control of soy bean rust on soy beans caused by Phakopsora pachyrhizi Leaves of pot-grown soy bean seedlings were sprayed to run-off with an aqueous suspension, containing the concentration of active ingredient or their mixture as described below. The plants were allowed to air-dry. The trial plants were cultivated for 2 day in a greenhouse chamber at 23 to 27° C. and a relative humidity between 60 and 80%. Then the plants were inoculated with spores of Phakopsora pachyrhizi. To ensure the success the artificial inoculation, the plants were transferred to a humid chamber with a relative humidity of about 95% and 20 to 24° C. for 24 h. The trial plants were cultivated for fourteen days in a greenhouse chamber at 23 to 27° C. and a relative humidity between 60 and 80%. The extent of fungal attack on the leaves was visually assessed as % diseased leaf area.

Row | Structure (SMILES) | diseased leaf area [%]
1 | CCN(Cc1ccc(-c2noc(C(F)(F)F)n2)cc1)C(=O)C(C)C [Ex-24] | 0
2 | CCCC(=O)N(CC)Cc1ccc(-c2noc(C(F)(F)F)n2)cc1 [Ex-25] | 0
3 | CCC(=O)N(CC)Cc1ccc(-c2noc(C(F)(F)F)n2)cc1 [Ex-26] | 0
4 | CCN(Cc1ccc(-c2noc(C(F)(F)F)n2)cc1)C(=O)C(C)(C)C [Ex-27] | 0

Same assay, conditions: 32 ppm active compound, sprayed 2 days before inoculation, soy bean seedlings; untreated plants 90%

Row | Structure (SMILES) | diseased leaf area [%]
5 | CNC(c1ccc(-c2noc(C(F)(F)F)n2)cc1)C(F)(F)F (stereo not shown) [Ex-1] | 0
6 | C=CCN(Cc1ccc(-c2noc(C(F)(F)F)n2)cc1)C(C)=O [Ex-4] | 0
7 | C=CCN(Cc1ccc(-c2noc(C(F)(F)F)n2)cc1)C(=O)CC [Ex-5] | 0
8 | C=CCN(Cc1ccc(-c2noc(C(F)(F)F)n2)cc1)C(=O)C(C)(C)C [Ex-6] | 0
9 | CCC(=O)N(C)Cc1ccc(-c2noc(C(F)(F)F)n2)cc1 [Ex-7] | 0
10 | CN(Cc1ccc(-c2noc(C(F)(F)F)n2)cc1)C(=O)C(C)(C)C [Ex-8] | 0
11 | CCC(=O)N(Cc1ccc(-c2noc(C(F)(F)F)n2)cc1)C(C)C [Ex-9] | 0
12 | CC(C)N(Cc1ccc(-c2noc(C(F)(F)F)n2)cc1)C(=O)C(C)(C)C [Ex-10] | 0
13 | CCC(CC)C(=O)N(C)Cc1ccc(-c2noc(C(F)(F)F)n2)cc1 [Ex-11] | 0
14 | CCCC(=O)N(C)Cc1ccc(-c2noc(C(F)(F)F)n2)cc1 [Ex-12] | 0
15 | CC(C)C(=O)N(C)Cc1ccc(-c2noc(C(F)(F)F)n2)cc1 [Ex-13, N,2-dimethyl-N[[4-[5-(trifluoromethyl)-1,2,4-oxadiazol-3-yl]phenyl]methyl]propanamide] | 0
16 | CCC(C)C(=O)N(C)Cc1ccc(-c2noc(C(F)(F)F)n2)cc1 (stereo not shown) [Ex-14] | 0
17 | CC(=O)NCc1ccc(-c2noc(C(F)(F)F)n2)cc1 [Ex-15] | 0
18 | CC(=O)N(C)C(C)c1ccc(-c2noc(C(F)(F)F)n2)cc1 (stereo not shown) [Ex-16, N-methyl-N-[1-[4-[5-(trifluoromethyl)-1,2,4-oxadiazol-3-yl]phenyl]ethyl]acetamide] | 0
19 | CC(c1ccc(-c2noc(C(F)(F)F)n2)cc1)N(C)C(=O)C(C)(C)C (stereo not shown) [Ex-17] | 0
20 | CCC(=O)N(C)C(C)c1ccc(-c2noc(C(F)(F)F)n2)cc1 (stereo not shown) [Ex-18] | 0
21 | CCCC(=O)N(C)C(C)c1ccc(-c2noc(C(F)(F)F)n2)cc1 (stereo not shown) [Ex-19] | 0
22 | CCC(CC)C(=O)N(C)C(C)c1ccc(-c2noc(C(F)(F)F)n2)cc1 (stereo not shown) [Ex-20] | 0
23 | CC(C)C(=O)N(C)C(C)c1ccc(-c2noc(C(F)(F)F)n2)cc1 (stereo not shown) [Ex-21] | 0
24 | CCC(C)C(=O)N(C)C(C)c1ccc(-c2noc(C(F)(F)F)n2)cc1 (stereo not shown) [Ex-22] | 0
25 | CC(=O)NC(c1ccc(-c2noc(C(F)(F)F)n2)cc1)C(F)(F)F (stereo not shown) [Ex-23] | 0
26 | CCC(C)C(=O)N(CC)Cc1ccc(-c2noc(C(F)(F)F)n2)cc1 (stereo not shown) [Ex-28] | 0
27 | CC(C)CC1CCN(Cc2ccc(-c3noc(C(F)(F)F)n3)cc2)C1=O (stereo not shown) [Ex-29] | 0
28 | O=C1CCCN1Cc1ccc(-c2noc(C(F)(F)F)n2)cc1 [Ex-30, 1-[[4-[5-(trifluoromethyl)-1,2,4-oxadiazol-3-yl]phenyl]methyl] pyrrolidin-2-one] | 0
29 | CC1(C)CC(=O)N(Cc2ccc(-c3noc(C(F)(F)F)n3)cc2)C1 [Ex-31] | 0
30 | CC1CCN(Cc2ccc(-c3noc(C(F)(F)F)n3)cc2)C1=O (stereo not shown) [Ex-32] | 0
31 | CC1(C)CCC(=O)N(Cc2ccc(-c3noc(C(F)(F)F)n3)cc2)C1 [Ex-33] | 0
